Converted amounts (≈) assume the structure as drawn.
Test system: Staphylococcus aureus strain UAMS-1
Assay: Antimicrobial susceptibility testing (MIC, broth microdilution)
Type: cell-based
Details: Staphylococcus aureus, UAMS1, 18 h, S. aureus UAMS-1, Mueller Hinton broth, 37° C., read-out: MIC
Method: The RNase P inhibitors described herein were tested for antimicrobial activity toward Staphylococcus aureus strain UAMS-1. Individual wells of a 96-well microtiter plate were inoculated with ˜1×10^5 colony-forming units (CFU) of the indicated organism, containing two-fold increasing concentrations (from 0 to 256 μg mL^−1) of the indicated antibiotic or putative RnpA inhibitor, and incubated at 37° C. for 18 hours in Mueller Hinton broth. The MIC was defined as the lowest concentration of antibiotic in which there was no visible bacterial growth in the wells. Minimum bactericidal concentration testing was performed by enumerating the bacterial cells in each of the wells containing treatments at and above the MIC.

SMILES	MIC [µg/mL]
CC(C)c1ccc(OCC(=O)NNC(=O)Cc2ccco2)cc1 [MC-190038]	> 256
Cc1ccc(C(=O)NNC(=O)COc2ccc(C(C)C)cc2)o1 [MC-190041]	> 256
Cc1ccc(CNc2c(NCCc3ccc(C(C)C)cc3)c(=O)c2=O)o1 [MC-190085]	> 128
CC(C)(C)c1ccc(C(=O)Nc2ccc(C(=O)NNC(=S)NC(=O)c3ccco3)cc2)cc1 [ST5524997]	32 (≈ 68.9 µM)
CC(C)c1ccc(CCNc2c(NCc3cc4ccccc4o3)c(=O)c2=O)cc1 [MC-190088]	> 128
CC(C)C(=O)Nc1ccc(C(=O)NNC(=S)NC(=O)c2ccco2)cc1 [ST5525955]	> 128
COc1ccc(C(=O)NC(=S)NNC(=O)c2ccco2)cc1 [ST5254089]	64 (≈ 200 µM)
CC(C)c1ccc(OCC(=O)NNC(=O)c2cc3ccccc3[nH]2)cc1 [MC-190051]	128 (≈ 364 µM)
CC(C)c1ccc(CNc2c(NCCc3ccco3)c(=O)c2=O)cc1 [MC-190092]	256 (≈ 756 µM)
CC(C)COc1ccc(C(=O)NNC(=S)NC(=O)c2ccco2)cc1 [ST5529685]	64 (≈ 177 µM)
Cc1cc(Cl)ccc1OCC(=O)NNC(=S)NC(=O)/C=C/c1ccco1 [ST5524187]	32 (≈ 81.2 µM)
COc1ccc2cc(C(=O)NNC(=O)COc3ccc(C(C)C)cc3)[nH]c2c1 [MC-190059]	> 256
O=C(CNC(=O)C1CCCCC1)NNC(=S)NC(=O)c1ccco1 [ST5526682]	> 128
COc1ccc(OCC(=O)NNC(=S)NC(=O)c2ccco2)cc1 [MC-190070]	64 (≈ 183 µM)
Cc1ccccc1OCC(=O)NNC(=S)NC(=O)/C=C/c1ccco1 [ST5524973]	32 (≈ 89 µM)
COCCOC(=O)CCC(=O)NC(=S)NNC(=O)COc1ccc(C(C)C)cc1 [ST5528839]	> 128
Cc1ccc(OCC(=O)NNC(=S)NC(=O)COc2ccccc2)cc1 [ST5521633]	16 (≈ 42.8 µM)
Cc1ccccc1C(=O)NNC(=S)NC(=O)COc1ccccc1 [ST5521953]	32 (≈ 93.2 µM)
CC(C)c1ccc(OCC(=O)NNC(=S)NC(=O)c2cnc3ccccc3c2)cc1 [MC-190082]	> 128
CC(C)c1ccc(CNc2c(NCc3ccco3)c(=O)c2=O)cc1 [MC-190091]	128 (≈ 395 µM)
O=C(Cc1ccccc1)NNC(=S)NC(=O)c1ccco1 [ST5682126]	> 128
CC(C)c1ccc(CCNc2c(NCc3ccco3)c(=O)c2=O)cc1 [MC-190083]	> 128
CC(C)c1ccc(CCNc2c(NCc3ccccn3)c(=O)c2=O)cc1 [MC-190086]	> 128

Same assay, conditions: Staphylococcus aureus, UAMS1; S. aureus UAMS-1, Mueller Hinton broth, 37° C., 18 hours; read-out: MIC

SMILES	MIC [µg/mL]
COc1ccccc1C(=O)NNC(=S)NC(=O)c1ccco1 [ST5525332]	8 (≈ 25.1 µM)

Biological target: T1, RnpA (Staphylococcus aureus, UniProt P0A0H5)
T1 sequence (P0A0H5 1-117): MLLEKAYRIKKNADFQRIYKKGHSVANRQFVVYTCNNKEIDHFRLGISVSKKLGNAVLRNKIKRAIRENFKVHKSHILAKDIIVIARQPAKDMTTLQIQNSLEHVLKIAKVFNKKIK
Assay: RnpA mRNA degradation activity assay
Type: biochemical
Details: not given
Method: The RNase P inhibitors described herein were tested for activity toward RnpA mRNA degradation activity. Either 1 μg of total S. aureus RNA or 1 pmol of in vitro synthesized spa mRNA was incubated with 20 pmol RnpA at 37° C. for 15 to 30 min in a reaction buffer (50 mM Tris-HCl pH 8.0, 2 mM NaCl, 2 mM MgCl2) in the absence or presence of the indicated compound. Reactions were stopped by adding an equal volume of 2×RNA loading dye (95% formamide, 0.025% SDS, 0.025% bromophenol blue, 0.025% xylene cyanol FF, 0.5 mM EDTA), run on a denaturing 1.0% agarose-0.66 M formaldehyde gel and stained with ethidium bromide. RNA substrates and corresponding degradation products were visualized using a FluorChem 5500 system (Alpha Innotech; San Leandro, Calif.). The inhibitory effects of the test compounds were measured using Image J densitometry software (National Institutes of Health; Bethesda, Md.) to quantify the signal intensity of the RNA band(s) in the negative control (RNA alone), positive control (RnpA+RNA+DMSO), and experimental samples (RnpA+RNA+test compound). The percent enzyme inhibition of test compounds was calculated using the following equation: Percent inhibition=[(experimental signal-positive control)/(negative control signal-positive control signal)]*100.

SMILES	IC50 [µM]
COc1ccccc1C(=O)NNC(=S)NC(=O)c1ccco1 [ST5525332]	> 500

Same assay, conditions: RnpA mRNA degradation, gel densitometry; read-out: RnpA IC50

SMILES	IC50 [µM]
CC(C)c1ccc(OCC(=O)NNC(=O)Cc2ccco2)cc1 [MC-190038]	> 500
Cc1ccc(C(=O)NNC(=O)COc2ccc(C(C)C)cc2)o1 [MC-190041]	470
CC(C)(C)c1ccc(C(=O)Nc2ccc(C(=O)NNC(=S)NC(=O)c3ccco3)cc2)cc1 [ST5524997]	300
CC(C)C(=O)Nc1ccc(C(=O)NNC(=S)NC(=O)c2ccco2)cc1 [ST5525955]	> 500
COc1ccc(C(=O)NC(=S)NNC(=O)c2ccco2)cc1 [ST5254089]	> 500
CC(C)c1ccc(OCC(=O)NNC(=O)c2cc3ccccc3[nH]2)cc1 [MC-190051]	45
CC(C)c1ccc(CNc2c(NCCc3ccco3)c(=O)c2=O)cc1 [MC-190092]	250
CC(C)COc1ccc(C(=O)NNC(=S)NC(=O)c2ccco2)cc1 [ST5529685]	> 500
Cc1cc(Cl)ccc1OCC(=O)NNC(=S)NC(=O)/C=C/c1ccco1 [ST5524187]	175
COc1ccc2cc(C(=O)NNC(=O)COc3ccc(C(C)C)cc3)[nH]c2c1 [MC-190059]	150
O=C(CNC(=O)C1CCCCC1)NNC(=S)NC(=O)c1ccco1 [ST5526682]	> 500
COc1ccc(OCC(=O)NNC(=S)NC(=O)c2ccco2)cc1 [MC-190070]	> 500
Cc1ccccc1OCC(=O)NNC(=S)NC(=O)/C=C/c1ccco1 [ST5524973]	220
Cc1ccccc1C(=O)NNC(=S)NC(=O)COc1ccccc1 [ST5521953]	> 500
CCC(C)c1ccc(OCC(=O)NNC(=S)NC(=O)C2CCCCC2)cc1 (stereo not drawn) [ST5525281]	275
CC(C)c1ccc(CNc2c(NCc3ccco3)c(=O)c2=O)cc1 [MC-190091]	25

Biological target: T2, S. aureus RNase P (RnpA+rnpB) (Staphylococcus aureus, UniProt P0A0H5)
T2 sequence (P0A0H5 1-117): T1 sequence (P0A0H5 1-117)
Assay: RNase P activity assay (precursor tRNA processing)
Type: biochemical
Details: RNase P IC50, ptRNATyr processing, gel densitometry
Method: The RNase P inhibitors described herein were tested for activity toward RNase P. S. aureus RNase P activity assays were performed in low salt buffer (50 mM Tris-HCl pH 8.0, 5 mM MgCl2) or in high salt buffer (50 mM Tris-HCl pH 8.0, 100 mM MgCl2, 800 mM NH4Cl). For all reactions, ptRNATyr, tRNATyr, or rnpB RNA species were first denatured by heating to 95° C. for 3 minutes, and then slowly cooling the mixtures to room temperature. RNase P was reconstituted by mixing an equal molar ratio of RnpB and RnpA for 15 min at 37° C. Precursor tRNA processing reactions (20 μL) were performed by mixing 1.25 pmol RNase P (RnpA+rnpB), RnpA, or rnpB with an equal volume of 2× low salt buffer or 2× high salt buffer and 10 pmol ptRNATyr. Mixtures were incubated for 15 min at 37° C. Reactions were stopped by adding 20 μL 2×RNA loading dye (95% formamide, 0.025% SDS, 0.025% bromophenol blue, 0.025% xylene cyanol FF, 0.5 mM EDTA), and 30 μL of each sample was electrophoresed in a 7 M urea/8% polyacrylamide gel and was then stained with ethidium bromide (0.5 μg/ml). Where indicated, reactions were repeated in the presence of the indicated amount of putative RnpA inhibitors or dimethyl sulfoxide (DMSO). A FluorChem 5500 imaging system was used to visualize the RNA, and the relative abundance of the mature tRNATyr band in the positive control (RNase P+DMSO) or in samples containing test compounds was measured using Image J densitometry software (NIH). The percent RNase P activity was then calculated using the following calculation: (test compound tRNATyr signal/positive control tRNATyr signal)*100.

SMILES	IC50 [µM]
COc1ccccc1C(=O)NNC(=S)NC(=O)c1ccco1 [ST5525332]	> 500

Same assay, conditions: ptRNATyr processing, gel densitometry; read-out: RNase P IC50

SMILES	IC50 [µM]
CC(C)c1ccc(OCC(=O)NNC(=O)Cc2ccco2)cc1 [MC-190038]	> 500
Cc1ccc(C(=O)NNC(=O)COc2ccc(C(C)C)cc2)o1 [MC-190041]	385
CC(C)(C)c1ccc(C(=O)Nc2ccc(C(=O)NNC(=S)NC(=O)c3ccco3)cc2)cc1 [ST5524997]	70
CC(C)C(=O)Nc1ccc(C(=O)NNC(=S)NC(=O)c2ccco2)cc1 [ST5525955]	145
COc1ccc(C(=O)NC(=S)NNC(=O)c2ccco2)cc1 [ST5254089]	180
CC(C)c1ccc(OCC(=O)NNC(=O)c2cc3ccccc3[nH]2)cc1 [MC-190051]	2
CC(C)c1ccc(CNc2c(NCCc3ccco3)c(=O)c2=O)cc1 [MC-190092]	250
CC(C)COc1ccc(C(=O)NNC(=S)NC(=O)c2ccco2)cc1 [ST5529685]	> 500
Cc1cc(Cl)ccc1OCC(=O)NNC(=S)NC(=O)/C=C/c1ccco1 [ST5524187]	65
COc1ccc2cc(C(=O)NNC(=O)COc3ccc(C(C)C)cc3)[nH]c2c1 [MC-190059]	80
O=C(CNC(=O)C1CCCCC1)NNC(=S)NC(=O)c1ccco1 [ST5526682]	200
COc1ccc(OCC(=O)NNC(=S)NC(=O)c2ccco2)cc1 [MC-190070]	> 500
Cc1ccccc1OCC(=O)NNC(=S)NC(=O)/C=C/c1ccco1 [ST5524973]	80
COCCOC(=O)CCC(=O)NC(=S)NNC(=O)COc1ccc(C(C)C)cc1 [ST5528839]	> 500
Cc1ccc(OCC(=O)NNC(=S)NC(=O)COc2ccccc2)cc1 [ST5521633]	155
Cc1ccccc1C(=O)NNC(=S)NC(=O)COc1ccccc1 [ST5521953]	> 500
CCC(C)c1ccc(OCC(=O)NNC(=S)NC(=O)C2CCCCC2)cc1 (stereo not drawn) [ST5525281]	125
O=C(Cc1ccccc1)NNC(=S)NC(=O)c1ccco1 [ST5682126]	> 500
